Test results taken from patent US20050245399A1, “Pyrazole derivatives as herbicidal compositions containing them” (ISHIHARA SANGYO KAISHA, LTD., priority 2004, published 2005).

What was measured:
Assay type in all cases: in vivo
[1] = system: soybean (Glycine max Merr.): GLXMA; test: Test Example 1 pre-emergence herbicidal activity, GLXMA; conditions: visually observed 20th to 23rd day after application
Outline: (§1)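 Plants were sown in pots of upland field soil and treated the following day, before emergence, with the formulated compound sprayed in 500 L/ha water. Herbicidal effect was judged by eye 20–23 days later on a 0–100% scale.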

[2] = system: crabgrass (Digitaria sanguinalis L.), DIGSA; test: Test Example 2 post-emergence (foliage treatment) herbicidal activity, DIGSA
Outline: (§2)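 Seeds are sown in upland soil in pots, and seedlings are sprayed once they reach set leaf stages (pigweed 0.1-1.5, barnyardgrass 1.1-2.1, crabgrass 1.0-2.0, rice 1.0-2). The formulated compound goes on in 500 L/ha water containing 0.1% (v/v) spreader. Effect is judged by eye 20-23 days on, as percent control.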

[3] = system: rice (Oryza sativa L.), ORYSA; test: Test Example 2 post-emergence (foliage treatment) herbicidal activity, ORYSA
Outline: as §2

[4] = system: rice (Oryza sativa L.: ORYSA); test: Test Example 3 water application herbicidal activity (paddy), transplanted rice ORYSA; conditions: 63 g a.i./ha, water application 4th day after transplantation of 2 leaf stage rice, visually observed 21st day after application; 0 = untreated control, 100 = complete kill
Description: (§3) Paddy field soil was put into a 1/1,000,000 ha pot and seeds of barnyardgrass (Echinochiloa oryzicola: ECHOR) and japanese bulrush (Scirpus juncoides: SCPJO) were sown and slightly covered with soil. Then the pot was left to stand still in a greenhouse in a state where the depth of flooding water was from 0.5 to 1 cm, and one day later, tubers of japanese ribbon wapato (Sagittaria pygmaea: SA GPY) were planted. Thereafter, the depth of flooding water was maintained at a level of from 3 to 4 cm, and when barnyardgrass and japanese bulrush reached a 0.5 leaf stage, an aqueous diluted solution of a wettable powder or emulsifiable concentrate having the compound of the present invention formulated in accordance with a usual formulation method, was uniformly applied under submerged condition by a pipette so that the dose of the active ingredient would be at a predetermined level. On the other hand, paddy filed soil was put into a 1/1,000,000 ha pot and puddled and leveled, and the depth of flooding water was from 3 to 4 cm. One day later, rice (Oryza sativa L.: ORYSA) of 2 leaf stage was transplanted in a depth of 3 cm. On the 4th day after the transplantation, the compound of the present invention was applied in the same manner as described above. On the 14th day after the application of the herbicide, the growth of barnyardgrass, japanese burlush and japanese ribbon wapato was visually observed and on the 21st day after the application of the herbicide, the growth of rice was visually observed, and the herbicidal effects were evaluated by growth controlling degrees (%) ranging from 0 (equivalent to the untreated control) to 100 (complete kill), whereby the results shown in Table 6, were obtained. Compound Nos. in Table 6 correspond to Compound Nos. in Table 1 and 2 given hereinbefore.

[5] = system: green foxtail (Setaria viridis L.): SETVI; test: Test Example 1 pre-emergence herbicidal activity, SETVI; conditions: visually observed 20th to 23rd day after application
Outline: as §1

[6] = system: wheat (Triticum aestivum L.): TRZAX; test: Test Example 1 pre-emergence herbicidal activity, TRZAX; conditions: visually observed 20th to 23rd day after application
Outline: as §1

[7] = system: prickly sida (Sida spinosa L.), SIDSP; test: Test Example 2 post-emergence (foliage treatment) herbicidal activity, SIDSP
Outline: (§4)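 Each species was evaluated for growth suppression by eye, 0% matching untreated and 100% meaning death, some 20 to 23 days after a single post-emergence foliar treatment applied in 500 L/ha of water carrying 0.1% (v/v) agricultural spreader.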

[8] = system: velvetleaf (Abutilon theophrasti), ABUTH; test: Test Example 2 post-emergence (foliage treatment) herbicidal activity, ABUTH
Outline: as §4

[9] = system: barnyardgrass (Echinochiloa oryzicola: ECHOR); test: Test Example 3 water application herbicidal activity (paddy), ECHOR; conditions: 63 g a.i./ha, water application under submerged condition at 0.5 leaf stage, visually observed 14th day after application; 0 = untreated control, 100 = complete kill
Description: as §3

[10] = system: wheat (Triticum aestivum L.), TRZAX; test: Test Example 2 post-emergence (foliage treatment) herbicidal activity, TRZAX
Outline: as §4

[11] = system: corn (Zea mays L.), ZEAMX; test: Test Example 2 post-emergence (foliage treatment) herbicidal activity, ZEAMX
Outline: as §4

[12] = system: japanese ribbon wapato (Sagittaria pygmaea: SA GPY); test: Test Example 3 water application herbicidal activity (paddy), SAGPY; conditions: 63 g a.i./ha, water application under submerged condition, tubers planted, visually observed 14th day after application; 0 = untreated control, 100 = complete kill
Description: as §3

[13] = system: corn (Zea mays L.): ZEAMX; test: Test Example 1 pre-emergence herbicidal activity, ZEAMX; conditions: visually observed 20th to 23rd day after application
Outline: as §1

[14] = system: japanese bulrush (Scirpus juncoides: SCPJO); test: Test Example 3 water application herbicidal activity (paddy), SCPJO; conditions: 63 g a.i./ha, water application under submerged condition at 0.5 leaf stage, visually observed 14th day after application; 0 = untreated control, 100 = complete kill
Description: as §3

[15] = system: redroot pigweed (Amaranthus retroflexus L.), AMARE; test: Test Example 2 post-emergence (foliage treatment) herbicidal activity, AMARE
Outline: as §2

[16] = system: redroot pigweed (Amaranthus retroflexus L.): AMARE; test: Test Example 1 pre-emergence herbicidal activity, AMARE; conditions: visually observed 20th to 23rd day after application
Outline: as §1

[17] = system: velvetleaf (Abutilon theophrasti): ABUTH; test: Test Example 1 pre-emergence herbicidal activity, ABUTH; conditions: visually observed 20th to 23rd day after application
Outline: as §1

[18] = system: rice (Oryza sativa L.): ORYSA; test: Test Example 1 pre-emergence herbicidal activity, ORYSA; conditions: visually observed 20th to 23rd day after application
Outline: as §1

[19] = system: soybean (Glycine max Merr.), GLXMA; test: Test Example 2 post-emergence (foliage treatment) herbicidal activity, GLXMA
Outline: as §4

[20] = system: barnyardgrass (Echinochloa crus-galli L.): ECHCG; test: Test Example 1 pre-emergence herbicidal activity, ECHCG; conditions: visually observed 20th to 23rd day after application
Outline: as §1

[21] = system: crabgrass (Digitaria sanguinalis L.): DIGSA; test: Test Example 1 pre-emergence herbicidal activity, DIGSA; conditions: visually observed 20th to 23rd day after application
Outline: as §1

[22] = system: barnyardgrass (Echinochloa crus-galli L.), ECHCG; test: Test Example 2 post-emergence (foliage treatment) herbicidal activity, ECHCG
Outline: as §2

[23] = system: green foxtail (Setaria viridis L.), SETVI; test: Test Example 2 post-emergence (foliage treatment) herbicidal activity, SETVI
Outline: as §4

[24] = system: prickly sida (Sida spinosa L.): SEDSP; test: Test Example 1 pre-emergence herbicidal activity, SIDSP; conditions: visually observed 20th to 23rd day after application
Outline: as §1

| Structure (SMILES) | Pre-emergence Herbicidal Activity GLXMA (growth controlling degree) ([1]; Rate 63 g a.i./ha) | growth controlling degree, DIGSP ([2]; 63 g a.i./ha) | growth controlling degree, ORYSA ([3]; 63 g a.i./ha) | growth controlling degrees (%) ORYSA [4] | Pre-emergence Herbicidal Activity SETVI (growth controlling degree) ([5]; Rate 63 g a.i./ha) | Pre-emergence Herbicidal Activity TRZAX (growth controlling degree) ([6]; Rate 63 g a.i./ha) | growth controlling degree, SIDSP ([7]; 63 g a.i./ha) | growth controlling degree, ABUTH ([8]; 63 g a.i./ha) | growth controlling degrees (%) ECHOR [9] | growth controlling degree, TRZAX ([10]; 63 g a.i./ha) | growth controlling degree, ZEAMX ([11]; 63 g a.i./ha) | growth controlling degrees (%) SAGPY [12] | Pre-emergence Herbicidal Activity ZEAMX (growth controlling degree) ([13]; Rate 63 g a.i./ha) | growth controlling degrees (%) SCPJO [14] | growth controlling degree, AMARE ([15]; 63 g a.i./ha) | Pre-emergence Herbicidal Activity AMARE (growth controlling degree) ([16]; Rate 63 g a.i./ha) | Pre-emergence Herbicidal Activity ABUTH (growth controlling degree) ([17]; Rate 63 g a.i./ha) | Pre-emergence Herbicidal Activity ORYSA (growth controlling degree) ([18]; Rate 63 g a.i./ha) | growth controlling degree, GLXMA ([19]; 63 g a.i./ha) | growth controlling degree, ECHCO ([22]; 63 g a.i./ha) | also measured |
| --- | --- | --- | --- | --- | --- | --- | --- | --- | --- | --- | --- | --- | --- | --- | --- | --- | --- | --- | --- | --- | --- |
| CCOC(=O)Nc1c(OC)c(Cl)cc(F)c1-c1nn(C)c(OC(F)F)c1Cl [Compound 1-273] | 0% | 20% | 10% | 30% | 20% | 0% | 90% | 98% | 70% | 20% | 10% | 0% | 0% | 0% | 100% | 80% | 10% | 10% | 60% | 30% | Pre-emergence Herbicidal Activity ECHCG (growth controlling degree) ([20]; Rate 63 g a.i./ha): 0%; Pre-emergence Herbicidal Activity DIGSP (growth controlling degree) ([21]; Rate 63 g a.i./ha): 30% |
| COc1c(Cl)cc(F)c(-c2nn(C)c(OC(F)F)c2Cl)c1[N+](=O)[O-] [Compound 2-21, 4-chloro-3-(4-chloro-6-fluoro-3-methoxy-2-nitrophenyl)-5-(difluoromethoxy)-1-methyl-1H-pyrazole] | – | – | – | 40% | – | – | – | – | 100% | – | – | 100% | – | 98% | – | – | – | – | – | – | growth controlling degree, DIGSP ([2]; 31 g a.i./ha): 95%; growth controlling degree, ORYSA ([3]; 31 g a.i./ha): 90%; growth controlling degree, SIDSP ([7]; 31 g a.i./ha): 100%; growth controlling degree, ABUTH ([8]; 31 g a.i./ha): 100%; growth controlling degree, TRZAX ([10]; 31 g a.i./ha): 40%; growth controlling degree, SETVI ([23]; 31 g a.i./ha): 100%; growth controlling degree, ZEAMX ([11]; 31 g a.i./ha): 80%; growth controlling degree, AMARE ([15]; 31 g a.i./ha): 100%; growth controlling degree, GLXMA ([19]; 31 g a.i./ha): 90%; growth controlling degree, ECHCO ([22]; 31 g a.i./ha): 100% |
| CCOC(=O)CN(C=O)c1c(OC)c(Cl)cc(F)c1-c1nn(C)c(OC(F)F)c1Cl [Compound 1-19] | – | 30% | 20% | 30% | – | – | 90% | 90% | 70% | 10% | 0% | 20% | – | 30% | 100% | – | – | – | 60% | 30% | Pre-emergence Herbicidal Activity GLXMA (growth controlling degree) ([1]; Rate 125 g a.i./ha): 0%; Pre-emergence Herbicidal Activity SETVI (growth controlling degree) ([5]; Rate 125 g a.i./ha): 10%; Pre-emergence Herbicidal Activity SIDSP (growth controlling degree) ([24]; Rate 125 g a.i./ha): 50%; Pre-emergence Herbicidal Activity TRZAX (growth controlling degree) ([6]; Rate 125 g a.i./ha): 0%; growth controlling degree, SETVI ([23]; 63 g a.i./ha): 30%; Pre-emergence Herbicidal Activity ZEAMX (growth controlling degree) ([13]; Rate 125 g a.i./ha): 20%; Pre-emergence Herbicidal Activity ABUTH (growth controlling degree) ([17]; Rate 125 g a.i./ha): 20%; Pre-emergence Herbicidal Activity ORYSA (growth controlling degree) ([18]; Rate 125 g a.i./ha): 0%; Pre-emergence Herbicidal Activity ECHCG (growth controlling degree) ([20]; Rate 125 g a.i./ha): 0%; Pre-emergence Herbicidal Activity DIGSP (growth controlling degree) ([21]; Rate 125 g a.i./ha): 50% |
| COc1c(Cl)cc(F)c(-c2nn(C)c(OC(F)F)c2Cl)c1NC(=O)c1ccc(C#N)cc1 [Compound 1-32] | 10% | 70% | 90% | 50% | 100% | 10% | 100% | 100% | 100% | 50% | 95% | 100% | 10% | 70% | 100% | 100% | 100% | 60% | 80% | 95% | Pre-emergence Herbicidal Activity SIDSP (growth controlling degree) ([24]; Rate 63 g a.i./ha): 100%; Pre-emergence Herbicidal Activity ECHCG (growth controlling degree) ([20]; Rate 63 g a.i./ha): 95%; Pre-emergence Herbicidal Activity DIGSP (growth controlling degree) ([21]; Rate 63 g a.i./ha): 100% |
| COc1c(Cl)cc(F)c(-c2nn(C)c(OC(F)F)c2Cl)c1N(C(=O)OCCCl)C(=O)OCCCl [Compound 1-52] | – | 30% | 40% | 20% | – | – | 90% | 80% | 100% | 10% | 10% | 0% | – | 50% | – | – | – | – | 30% | 50% | Pre-emergence Herbicidal Activity GLXMA (growth controlling degree) ([1]; Rate 125 g a.i./ha): 0%; Pre-emergence Herbicidal Activity SETVI (growth controlling degree) ([5]; Rate 125 g a.i./ha): 50%; Pre-emergence Herbicidal Activity SIDSP (growth controlling degree) ([24]; Rate 125 g a.i./ha): 0%; Pre-emergence Herbicidal Activity TRZAX (growth controlling degree) ([6]; Rate 125 g a.i./ha): 0%; growth controlling degree, SETVI ([23]; 63 g a.i./ha): 30%; Pre-emergence Herbicidal Activity ZEAMX (growth controlling degree) ([13]; Rate 125 g a.i./ha): 0%; Pre-emergence Herbicidal Activity AMARE (growth controlling degree) ([16]; Rate 125 g a.i./ha): 100%; Pre-emergence Herbicidal Activity ABUTH (growth controlling degree) ([17]; Rate 125 g a.i./ha): 0%; Pre-emergence Herbicidal Activity ORYSA (growth controlling degree) ([18]; Rate 125 g a.i./ha): 0%; Pre-emergence Herbicidal Activity ECHCG (growth controlling degree) ([20]; Rate 125 g a.i./ha): 0%; Pre-emergence Herbicidal Activity DIGSP (growth controlling degree) ([21]; Rate 125 g a.i./ha): 30% |
